In patent publication US5602100A, “Dermorphin analogs having pharmacological activity” (priority 1988, dated 1997):
Non-standard residues stand in square brackets, D forms with d. Residues, ends and D or L forms follow the SMILES beside them. dNle = CCCC[C@@H](N)C(=O)O; Dab = NCC[C@H](N)C(=O)O; Nva = CCC[C@H](N)C(=O)O

Key:
PBQ-induced writhing = test: Mouse writhing test (PBQ); assay type: in vivo; conditions: dose reducing the number of writhes by 50%
Description: The mouse writhing test detects both peripherally and centrally mediated analgesic effects. The test procedure is described in Siegmund et al., Proc. Soc. Exp. Biol. Med., 95, p. 729 (1957). In this test, a control group of albino mice was injected intraperitoneally with 0.3 ml/20 g body weight of a 0.02% solution of 2-phenyl-1,4-benzoquinone (PBQ). The writhing and contortional movements of the mice over the following 15 minutes were recorded. A second group of mice was given a dose of a synthetic dermorphin analog according to this invention, then allowed to wait a period of time before being administered the PBQ injection. The average number of writhes was then recorded and compared to the control group. The results of this test are expressed as the dosage of peptide that reduces the number of writhes by 50% at a given time interval (referred to as ED50).

guinea pig ileum (GPI) [1] = test: Ke values for naloxone as antagonist in the GPI assay; assay type: cell-based; conditions: mean of three determinations ± SEM
Description: κ-receptor interactions were determined by measuring Ke values for naloxone as an antagonist in the GPI assay. High Ke values (in the range of 20-30 nM) are associated with κ-receptor interactions. Low Ke values (in the range of 1-2 nM) are associated with μ-receptor interactions. Ke values for naloxone were determined from the ratio of IC50 values obtained in the presence of and in the absence of a fixed naloxone concentration. The IC50 values of the tested compounds were normalized according to published procedure (F. M. Leslie, "Methods Used for the Study of Opioid Receptors", Pharmacological Reviews, 39 (1987)).

μ-opioid receptor = biological target: T1, μ-opioid receptor (Rattus norvegicus, UniProt P33535); test: biochemical; assay type: binding
T1 construct: displacement of the radioligands from the rat brain membrane preparations; from tissue; host or cells: rat brain membrane preparations
T1 sequence (P33535 whole entry): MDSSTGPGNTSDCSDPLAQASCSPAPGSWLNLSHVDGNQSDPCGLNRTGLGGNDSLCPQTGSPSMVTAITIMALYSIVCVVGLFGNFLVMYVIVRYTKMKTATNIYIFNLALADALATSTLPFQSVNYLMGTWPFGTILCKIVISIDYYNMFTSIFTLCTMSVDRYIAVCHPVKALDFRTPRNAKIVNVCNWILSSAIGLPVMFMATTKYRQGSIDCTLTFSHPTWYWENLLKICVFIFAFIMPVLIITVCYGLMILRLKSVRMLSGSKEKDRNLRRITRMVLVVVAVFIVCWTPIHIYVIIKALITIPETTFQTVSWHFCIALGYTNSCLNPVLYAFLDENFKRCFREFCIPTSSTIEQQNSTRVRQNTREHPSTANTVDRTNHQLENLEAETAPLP

mouse vas deferens (MVD) = assay type: cell-based
δ-opioid receptor = biological target: T2, δ-opioid receptor (Rattus norvegicus, UniProt P33533); test: biochemical; assay type: binding
T2 construct: displacement of the radioligands from the rat brain membrane preparations; from tissue; host or cells: rat brain membrane preparations
T2 sequence (P33533 whole entry): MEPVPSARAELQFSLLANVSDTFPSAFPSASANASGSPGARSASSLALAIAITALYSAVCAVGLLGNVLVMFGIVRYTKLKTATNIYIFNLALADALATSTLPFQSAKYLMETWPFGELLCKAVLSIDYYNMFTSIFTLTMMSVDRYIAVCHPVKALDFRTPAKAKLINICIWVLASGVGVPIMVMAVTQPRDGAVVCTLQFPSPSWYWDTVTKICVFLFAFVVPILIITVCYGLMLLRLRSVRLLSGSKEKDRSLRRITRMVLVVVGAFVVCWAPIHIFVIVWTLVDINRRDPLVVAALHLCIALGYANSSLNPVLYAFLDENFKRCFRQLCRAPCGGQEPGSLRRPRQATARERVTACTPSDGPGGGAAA

guinea pig ileum (GPI) [2] = assay type: cell-based
hot plate stimulus = test: Mouse hot plate test; assay type: in vivo
Description: The mouse hot plate test is an assay which only detects centrally-mediated analgesic effects. This test was carried out using the protocol described in G. Woolfe and A. MacDonald, J. Pharmacol. Exp. Ther., 80, p. 300 ([…]).
Since most of the peptides of the invention were not potent centrally, it was impossible to determine an ED50 value. […] A result is considered insignificant if 30% of mice or lower have responded.

[3] = Respiration rate (respiratory depression); assay type: in vivo, rat; conditions: control 142 ± 5
Description: In addition to the mouse writhing data, respiratory depression was measured in certain treated mice. Respiratory depression is a commonly observed side effect characteristic of centrally-acting opiates. These reulsts are expressed in Table 5.

Row | Compound | PBQ (20 min.) ED50 (PBQ-induced writhing) [mg/kg] | Ke (naloxone) (guinea pig ileum (GPI) [1]) [nm] | Ki (μ-opioid receptor) [nM] | Ki^δ /Ki^μ (μ-opioid receptor) | IC50 (mouse vas deferens (MVD)) [nM] | MVD relative potency (mouse vas deferens (MVD)) | Ki (δ-opioid receptor) [nM] | GPI relative potency (guinea pig ileum (GPI) [2]) | IC50 (guinea pig ileum (GPI) [2]) [nM] | MVD/GPI IC50 ratio (guinea pig ileum (GPI) [2]) | % of animals showing a 50% increase (hot plate stimulus; dose 40 mg/kg, time 60 min.) [%] | Breaths per min. ([3]; dose 30 mg/kg) [breaths per min.] | Breaths per min. ([3]; dose 100 mg/kg) [breaths per min.] | % of animals showing a 50% increase (hot plate stimulus; dose 100 mg/kg, time 60 min.) [%] | % of animals showing a 50% increase (hot plate stimulus; dose 40 mg/kg, time 120 min.) [%] | % of animals showing a 50% increase (hot plate stimulus; dose 40 mg/kg, time 30 min.) [%] | % of animals showing a 50% increase (hot plate stimulus; dose 100 mg/kg, time 120 min.) [%]
1 | N=C(N)NCCC[C@@H](NC(=O)[C@@H](N)Cc1ccc(O)cc1)C(=O)N[C@@H](Cc1ccccc1)C(=O)N[C@@H](CCN)C(N)=O [BCH-1764, H-Tyr-D-Arg-Phe-A2 bu-NH2] (H-Y[dR]F[Dab]-NH2) | 0.13 | 1.32 ± 0.05 | 5.78 | 2180 | 659 ± 123 | 0.0173 ± 0.0032 | 12600 | 0.956 ± 0.208 | 257 ± 56 | 2.56 | 100 | – | – | – | – | – | –
2 | CCC[C@H](NC(=O)[C@H](Cc1ccccc1)NC(=O)[C@@H](CCCNC(=N)N)NC(=O)[C@@H](N)Cc1ccc(O)cc1)C(N)=O [BCH-1788, H-Tyr-D-Arg-Phe-Nva-NH2] (H-Y[dR]F[Nva]-NH2) | 1.3 | – | 11.7 | > 216 | – | – | > 2530 | – | – | – | 45 | 163 ± 9 | 125 ± 4 | 60 | – | – | –
3 | C[C@@H](NC(=O)[C@@H](N)Cc1ccc(O)cc1)C(=O)N[C@@H](Cc1ccccc1)C(=O)N[C@@H](CCCCN)C(N)=O [BCH-1789, H-Tyr-D-Ala-Phe-Lys-NH2] (H-Y[dA]FK-NH2) | 0.6 | – | 33.3 | 133 | – | – | 4430 | – | – | – | – | 182 ± 24 | – | 80 | 40 | – | –
4 | CCCC[C@@H](NC(=O)[C@@H](N)Cc1ccc(O)cc1)C(=O)N[C@@H](Cc1ccccc1)C(=O)N[C@@H](CCCCN)C(N)=O [BCH-2205, H-Tyr-D-Nle-Phe-Lys-NH2] (H-Y[dNle]FK-NH2) | 1.8 | – | 12.4 | 306 | – | – | 3800 | – | – | – | – | 158 ± 7 | 150 ± 4 | 60 | – | 60 | –
5 | CC(C)[C@@H](NC(=O)[C@@H](N)Cc1ccc(O)cc1)C(=O)N[C@@H](Cc1ccccc1)C(=O)N[C@@H](CCCCN)C(N)=O [BCH-2206, H-Tyr-D-Val-Phe-Lys-NH2] (H-Y[dV]FK-NH2) | 4.8 | – | 6.58 | > 384 | – | – | > 2530 | – | – | – | – | 168 ± 13 | – | – | 30 | – | 90
6 | CCCC[C@@H](NC(=O)[C@@H](N)Cc1ccc(O)cc1)C(=O)N[C@@H](Cc1ccccc1)C(=O)N[C@@H](CCN)C(N)=O [BCH-2472, H-Tyr-D-Nle-Phe-A2 bu-NH2] (H-Y[dNle]F[Dab]-NH2) | 0.8 | – | 10.2 | 207.88 | – | – | 2130 | – | – | – | 60 | – | – | – | – | – | –
7 | CC(C)C[C@H](NC(=O)[C@H](Cc1ccccc1)NC(=O)CNC(=O)CNC(=O)[C@@H](N)Cc1ccc(O)cc1)C(=O)O [Leu-enkephalin, [Leu^5]enkephalin, reference compound] | – | 1.53 ± 0.43 | – | – | – | – | – | – | – | – | – | – | – | – | – | – | –
8 | H-Tyr-D-Ala-Gly-Phe(NMe)-Gly-ol [DAGO, reference compound] | – | 0.800 ± 0.100 | – | – | 950 ± 269 | – | – | – | 28 ± 3.7 | – | – | – | – | – | – | – | –
